Experimental data: PubChem BioAssay AID1996
Values after ≈ are worked out from the molar mass of the structure shown.

settings: buffer; pH 7.4; 200.0 µM

Question: With `CCc1cc(=O)[nH]c(SCCc2ccccc2)n1` as the compound, how does the solubility kinetic read?
Answer: > 39.1 µg/mL

Question: Which solubility kinetic does the source give for `COc1ccc2c(c1)nc(SCC(O)c1ccccc1)n2C` (centres undefined) here?
Answer: 41.3 µg/mL (≈ 131 µM)

Question: For `O=[N+]([O-])c1ccccc1OC/C(=N\O)c1ccccc1`, which solubility kinetic is on record?
Answer: > 40.8 µg/mL

Question: For `Cc1ccc(C(O)(CCN2CCCCC2)c2ccccc2)cc1.Cl` (centres undefined), which solubility kinetic is on record?
Answer: > 51.9 µg/mL

Question: With `Cc1ccc(C2=NOC(=O)/C2=C\c2ccccc2)cc1` as the compound, how does the solubility kinetic read?
Answer: 33.7 µg/mL (≈ 128 µM)

Question: For `CC(CN1C(C)CCCC1C)OC(=O)c1ccc(F)cc1.Cl` (centres undefined), which solubility kinetic is on record?
Answer: 46.5 µg/mL

Question: With `c1ccc2nc(SCc3cn4ccccc4n3)cnc2c1` as the compound, how does the solubility kinetic read?
Answer: > 43.9 µg/mL

Question: Which solubility kinetic does the source give for `COc1cc(/C(C)=N/NC(=O)CSc2nnc(C)s2)ccc1O` here?
Answer: > 52.9 µg/mL

Question: For `N#C/C(=C\c1ccccc1O)C(=O)Nc1ccccn1`, which solubility kinetic is on record?
Answer: 32.9 µg/mL (≈ 124 µM)

Question: For `CCOC(=O)c1ccc2nc(C)c(C)nc2c1`, which solubility kinetic is on record?
Answer: 31.3 µg/mL (≈ 136 µM)

Question: Which solubility kinetic does the source give for `COc1ccc(Nc2nc(Cl)c(C=O)s2)cc1` here?
Answer: 11.1 µg/mL (≈ 41.3 µM)

Question: Which solubility kinetic does the source give for `Cc1ccc(C)c(OCCC(=O)Nc2ccccc2C(=O)NC2CC2)c1` here?
Answer: 4.2 µg/mL (≈ 11.9 µM)

Question: For `O=C(O)CCCNC(=O)/C=C/c1ccco1`, which solubility kinetic is on record?
Answer: 26.5 µg/mL (≈ 119 µM)

Question: With `COc1cccc(CSc2nc3ccncc3[nH]2)c1` as the compound, how does the solubility kinetic read?
Answer: > 40.7 µg/mL

Question: With `Cc1ccc(CNC(=O)c2cncc(Br)c2)cc1` as the compound, how does the solubility kinetic read?
Answer: 9.6 µg/mL (≈ 31.5 µM)

Question: For `O=C(O)C1C2CCC(C2)C1C(=O)Nc1ccc(Cl)c(Cl)c1` (centres undefined), which solubility kinetic is on record?
Answer: < 0.7 µg/mL

Question: Which solubility kinetic does the source give for `CCc1cc2c(=O)oc(-c3ccccc3F)nc2s1` here?
Answer: 0.7 µg/mL (≈ 2.54 µM)

Question: For `Nn1c(SCC(=O)Nc2ccc(N3CCOCC3)cc2)nnc1C1CC1`, which solubility kinetic is on record?
Answer: > 56.2 µg/mL

Question: Which solubility kinetic does the source give for `COc1ccc(C2(CNC(=O)c3ccccc3)CCOCC2)cc1` here?
Answer: > 48.8 µg/mL

Question: For `Cc1ccc(N2C(=O)SC(Cc3ccccc3)C2=O)cc1` (centres undefined), which solubility kinetic is on record?
Answer: 0.8 µg/mL (≈ 2.69 µM)

Question: For `CCOC(=O)c1[nH]c(C=O)c(C(=O)OCC)c1C`, which solubility kinetic is on record?
Answer: 20.7 µg/mL (≈ 81.7 µM)

Question: Which solubility kinetic does the source give for `O=C(CNC(=O)c1ccccc1)NCCc1ccc(O)c(O)c1` here?
Answer: > 47.2 µg/mL

Question: For `O=C(CCC(=O)c1ccccc1)NCCOc1ccccc1`, which solubility kinetic is on record?
Answer: > 44.6 µg/mL

Question: With `CC1Sc2ccc(C(=O)NCc3ccccc3Cl)cc2NC1=O` (centres undefined) as the compound, how does the solubility kinetic read?
Answer: 4.1 µg/mL (≈ 11.8 µM)

Question: With `CC(=O)c1cn(Cc2ccccc2C#N)c2ccccc12` as the compound, how does the solubility kinetic read?
Answer: 7 µg/mL (≈ 25.5 µM)

Question: With `Cc1ccc(NC(=O)C2=CC=CN3CCS(=O)(=O)N=C23)cc1` as the compound, how does the solubility kinetic read?
Answer: 11.6 µg/mL (≈ 36.6 µM)

Question: With `CCOC(=O)C(C)Oc1ccc(NC(=O)C(Cl)Cl)cc1` (centres undefined) as the compound, how does the solubility kinetic read?
Answer: > 48 µg/mL

Question: With `COc1ccc2oc(C(=O)OCC(=O)N3CCC(C)CC3)c(C)c2c1` as the compound, how does the solubility kinetic read?
Answer: 41.8 µg/mL (≈ 121 µM)

Question: Which solubility kinetic does the source give for `Cc1cc(Cl)ccc1NC(=S)NC(C)(C)C` here?
Answer: 28.3 µg/mL (≈ 110 µM)

Question: Which solubility kinetic does the source give for `O=C(N/N=C/C1CC2CCC1C2)C1CC1` (centres undefined) here?
Answer: > 30.9 µg/mL

Question: With `CC1CN(C(=S)NC2CCCC2)CC(C)O1` (centres undefined) as the compound, how does the solubility kinetic read?
Answer: > 36.4 µg/mL

Question: Which solubility kinetic does the source give for `C=CCN(CC=C)C(=O)C[n+]1ccc(C(N)=O)cc1.[Cl-]` here?
Answer: > 44.4 µg/mL

Question: Which solubility kinetic does the source give for `CCCS(=O)(=O)NCCc1csc(-c2ccc(OC)c(OC)c2)n1` here?
Answer: 51.7 µg/mL (≈ 140 µM)

Question: With `C/C(=N/NC(=O)CNC(=O)c1cccnc1)c1ccccc1` as the compound, how does the solubility kinetic read?
Answer: > 44.4 µg/mL

Question: With `Cc1ccc(C)c(S(=O)(=O)NC2CCSC2=O)c1` (centres undefined) as the compound, how does the solubility kinetic read?
Answer: > 42.8 µg/mL

Question: Which solubility kinetic does the source give for `COc1cccc(CN(C)C(=O)Cc2c[nH]c3ccccc23)c1` here?
Answer: > 46.3 µg/mL

Question: For `CN1CCN(c2cc(C(F)(F)F)nc3ccc(F)cc23)CC1`, which solubility kinetic is on record?
Answer: 43.5 µg/mL (≈ 139 µM)

Question: For `Cc1cc(C)c2[nH]c(C(=O)Nc3ccc(F)cc3Br)cc2c1`, which solubility kinetic is on record?
Answer: 4.2 µg/mL (≈ 11.6 µM)

Question: For `CC(C)N(Cc1ccc(F)cc1)C(=O)c1cc2ccccc2oc1=O`, which solubility kinetic is on record?
Answer: 0.8 µg/mL (≈ 2.36 µM)

Question: Which solubility kinetic does the source give for `CCC(C)NC(=O)CN1c2cccc3cccc(c23)S1(=O)=O` (centres undefined) here?
Answer: 35.5 µg/mL (≈ 111 µM)

Question: With `COc1ccc(CNC(=O)Nc2ccccc2)cc1` as the compound, how does the solubility kinetic read?
Answer: 13.5 µg/mL (≈ 52.7 µM)

Question: Which solubility kinetic does the source give for `CCOc1ccccc1CN1C(=O)NC2(CCCCCC2)C1=O` here?
Answer: 46.6 µg/mL (≈ 147 µM)

Question: For `O=C(Cc1ccc([N+](=O)[O-])cc1)NCc1ccccn1`, which solubility kinetic is on record?
Answer: > 40.7 µg/mL

Question: With `CC(C)CC1NC(=O)N(CC(=O)Nc2cc([N+](=O)[O-])ccc2F)C1=O` (centres undefined) as the compound, how does the solubility kinetic read?
Answer: > 52.8 µg/mL

Question: For `CC1CCCCC1NC1=NCCCS1` (centres undefined), which solubility kinetic is on record?
Answer: > 31.9 µg/mL

Question: For `Cc1ccc(NC(=O)Nc2cnccn2)c(C)c1`, which solubility kinetic is on record?
Answer: 2.2 µg/mL (≈ 9.08 µM)

Question: With `O=C(c1ccc([N+](=O)[O-])cc1)N1CCN(C(=O)c2cccnc2)CC1` as the compound, how does the solubility kinetic read?
Answer: > 51.1 µg/mL

Question: With `C=CCn1cccc(C(=O)Nc2ccc(OC)c(Cl)c2)c1=O` as the compound, how does the solubility kinetic read?
Answer: 1.5 µg/mL (≈ 4.71 µM)

Question: With `Cc1cc(N/C=C/C(=O)c2ccccc2)ccc1Br` as the compound, how does the solubility kinetic read?
Answer: < 0.7 µg/mL

Question: Which solubility kinetic does the source give for `O=C(CNS(=O)(=O)c1ccccc1)NCc1ccco1` here?
Answer: > 44.1 µg/mL

Question: Which solubility kinetic does the source give for `NS(=O)(=O)c1ccc(NC(=O)Nc2cccc3ccccc23)cc1` here?
Answer: 2.1 µg/mL (≈ 6.15 µM)

Question: Which solubility kinetic does the source give for `O=C(O)CN1C(=O)C2(OCCO2)c2cc(Br)ccc21` here?
Answer: > 49.2 µg/mL

Question: With `O=C1CCCN1CCCNS(=O)(=O)c1cccs1` as the compound, how does the solubility kinetic read?
Answer: > 43.3 µg/mL

Question: Which solubility kinetic does the source give for `CCCCNC(=O)N1CCCN(c2ccc(C#N)cn2)CC1` here?
Answer: > 45.2 µg/mL

Question: With `Cc1c(C)n(C)c2ccc(C(=O)NCCN3CCOCC3)cc12` as the compound, how does the solubility kinetic read?
Answer: > 47.3 µg/mL

Question: Which solubility kinetic does the source give for `CCN(CC)C(=O)COc1ccc2c3c(c(=O)oc2c1)CCCC3` here?
Answer: 48.1 µg/mL (≈ 146 µM)

Question: Which solubility kinetic does the source give for `Nc1cc(C(=O)OCC(=O)NCCC2=CCCCC2)ccc1Cl` here?
Answer: 9.4 µg/mL (≈ 27.9 µM)

Question: For `CN(Cc1cccc(F)c1)C(=O)c1cc(=O)[nH]c2ccccc12`, which solubility kinetic is on record?
Answer: 44.3 µg/mL (≈ 143 µM)

Question: For `Fc1cc2[nH]c(=S)[nH]c2cc1Cl`, which solubility kinetic is on record?
Answer: 26.5 µg/mL (≈ 131 µM)

Question: With `O=C(Nc1cccc(Cl)c1)NC1CC2CCC1C2` (centres undefined) as the compound, how does the solubility kinetic read?
Answer: 1.1 µg/mL (≈ 4.15 µM)

Question: With `Cc1cccc(C)c1OCC(=O)Nc1ccccc1C(F)(F)F` as the compound, how does the solubility kinetic read?
Answer: 1.6 µg/mL (≈ 4.95 µM)

Question: Which solubility kinetic does the source give for `CN1CCN(S(=O)(=O)c2csc(C(N)=O)c2)CC1` here?
Answer: > 43.4 µg/mL

Question: Which solubility kinetic does the source give for `O=C(Nc1ccncc1)Nc1ccc(Br)cc1Cl` here?
Answer: 1.9 µg/mL (≈ 5.82 µM)

Question: For `O=C(COC(=O)/C=C/c1cccc(Cl)c1)Nc1c(F)cccc1F`, which solubility kinetic is on record?
Answer: 6.3 µg/mL (≈ 17.9 µM)

Question: Which solubility kinetic does the source give for `O=C(NCCSCc1ccc(Cl)cc1)c1cccs1` here?
Answer: 21.5 µg/mL (≈ 68.9 µM)

Question: Which solubility kinetic does the source give for `O=C(COC(=O)C(CO)NS(=O)(=O)c1ccc(Br)cc1)Nc1ccc2c(c1)OCCO2` (centres undefined) here?
Answer: > 77.3 µg/mL

Question: For `Cl.Nc1nc(N)c2[nH]c(-c3ccccc3)nc2n1`, which solubility kinetic is on record?
Answer: > 39.4 µg/mL

Question: Which solubility kinetic does the source give for `CC(=O)c1sc(NC(=O)c2ccc(Br)o2)nc1C` here?
Answer: 12.8 µg/mL (≈ 38.9 µM)

Question: With `CCC(=O)Nc1ccc2c(c1)ncn2C` as the compound, how does the solubility kinetic read?
Answer: > 30.5 µg/mL

Question: Which solubility kinetic does the source give for `CCCCn1c(O)c(C(C)=Nc2ccc3c(c2)CCC3)c(=O)[nH]c1=O` here?
Answer: < 0.2 µg/mL

Question: Which solubility kinetic does the source give for `O=C(NN=C1CCCCC1)c1ccccc1-n1cccc1` here?
Answer: > 42.2 µg/mL

Question: With `CN1C(=O)/C(=C\c2ccco2)N=C1c1ccc(Cl)cc1Cl` as the compound, how does the solubility kinetic read?
Answer: 33 µg/mL (≈ 103 µM)

Question: With `Fc1ccc(CNC(=S)NC2CCCCCC2)cc1` as the compound, how does the solubility kinetic read?
Answer: 28.3 µg/mL (≈ 101 µM)

Question: With `CC(NC(=O)CCc1ccccc1)c1ccc2c(c1)OCO2` (centres undefined) as the compound, how does the solubility kinetic read?
Answer: 42 µg/mL (≈ 141 µM)

Question: With `COc1ccc2c(c1OC)CN1CCc3cc4c(cc3C1C2)OCO4` (centres undefined) as the compound, how does the solubility kinetic read?
Answer: 2.1 µg/mL (≈ 6.19 µM)

Question: For `O=C(COC(=O)c1cccnc1)NC1CCCc2ccccc21` (centres undefined), which solubility kinetic is on record?
Answer: 39.3 µg/mL (≈ 127 µM)

Question: With `Cc1cccc(C)c1NC(=S)NC(C)(C)CO` as the compound, how does the solubility kinetic read?
Answer: > 37.9 µg/mL

Question: With `CC(CN1CCC(O)CC1)c1ccccc1` (centres undefined) as the compound, how does the solubility kinetic read?
Answer: 26.6 µg/mL (≈ 121 µM)

Question: With `O=CN1Cc2ccccc2-c2ccccc2C1` as the compound, how does the solubility kinetic read?
Answer: > 33.5 µg/mL

Question: With `CNC(=S)Nc1ccc2nc(C)oc2c1` as the compound, how does the solubility kinetic read?
Answer: > 33.2 µg/mL

Question: With `O=C(COC(=O)CC1CCCC1)Nc1cccc(F)c1` as the compound, how does the solubility kinetic read?
Answer: > 41.9 µg/mL

Question: Which solubility kinetic does the source give for `Cc1ccc(CNC(=O)Cc2cn(C)c3ccccc23)cc1` here?
Answer: 2.2 µg/mL (≈ 7.52 µM)

Question: With `O=S(=O)(c1ccc(-c2ccno2)s1)N1CCCCC1` as the compound, how does the solubility kinetic read?
Answer: 8.1 µg/mL (≈ 27.1 µM)

Question: With `CC(C)(C)OC(=O)NC1CC2CCCC(C1)N2Cc1ccccc1` (centres undefined) as the compound, how does the solubility kinetic read?
Answer: > 49.6 µg/mL

Question: Which solubility kinetic does the source give for `Cc1ccc(Cn2ccc(O)c(Cc3ccccc3)c2=O)cc1` here?
Answer: < 0.7 µg/mL

Question: With `COc1ccc(CC(=O)NCCC2=CCCCC2)cc1` as the compound, how does the solubility kinetic read?
Answer: > 41 µg/mL

Question: With `O=C(COC(=O)c1ccccn1)c1ccc([N+](=O)[O-])cc1` as the compound, how does the solubility kinetic read?
Answer: 39.9 µg/mL (≈ 139 µM)

Question: With `COc1ccccc1C(=O)COC(=O)CN1C(=O)C2CC=CCC2C1=O` (centres undefined) as the compound, how does the solubility kinetic read?
Answer: 52 µg/mL (≈ 146 µM)

Question: Which solubility kinetic does the source give for `COc1ccccc1C(C[N+](=O)[O-])c1c[nH]c2ccccc12` (centres undefined) here?
Answer: 9 µg/mL (≈ 30.4 µM)
